From US4149007A, “C14 Phenyl-substituted derivatives of prostaglandin analogues” (Miles Laboratories, Inc., priority 1977, dated 1979) come the findings set out here.

Entries after “also recorded” stand apart in the source; their conditions may differ.

One assay relates to guinea pig trachea. Briefly: Effects on the guinea pig trachea in vitro. In kind it is cell-based. The following applies: 0.01-10.0 mcg/ml, relative to PGE1 0.1 mcg/ml. As for the experimental part: (C) effect on the guinea pig trachea in vitro;
A male guinea pig weighing 200-500 g was killed by a blow on the head. A 20 mm length of the trachea was dissected from the animal, transferred to a petri dish containing Krebs' solution (aerated with 95% O2 and 5% CO2 at 37° C.), and cut longitudinally opposite the tracheal muscle. The tissue was then cut transversely three quarters of the distance across, a second cut in the opposite direction (again three quarters of the distance across the tissue) was made and the procedure was continued for the whole tissue. The ends of the trachea were pulled to form a zig-zig shaped strip. The tracheal strip used in the experiment was approximately 30 mm when extended under 0.25-0.5 g load in the tissue bath. Cotton thread was tied to one end of the tissue, and linen thread to the other. It was attached via the linen thread to a glass hook in a 5 ml isolated tissue bath containing Krebs' solution (37° C., aerated with a mixture of 95% O2 and 5% CO2). […]
A test compound was then added to the same two strips at bath concentrations of 0.01, 0.1, 1.0, and 10.0 mcg/ml and the effects of the compound were recorded. […] The mean of the effects of the test compound on the two strips was then calculated for each concentration, and, based on the resulting values, an activity value was assigned as follows: […]

In another assay the test system is rat uterus. Briefly: Effects on the rat uterus in vitro. Format: cell-based. The following applies: dose producing response 50% that of carbachol. Here is the method:
(B) effect on the rat uterus in vitro;
The uterine stimulant effect of test compounds was determined in segments of uterus obtained from rats (140-160 g) pretreated subcutaneously with 1 mg/kg of diethylstilbesterol 18 hours before the experiment. The tissues were placed in 10 ml chambers filled with de-Jalon solution at 29° C., were aerated and bubbled with 95% O2 and 5% CO2, and were prepared for isometric recording with force displacement transducers. Preparations were stretched to an initial tension of 1 g and were left undisturbed for 30 minutes. Carbachol (1 mcg/ml) was then added to the bath and a response was recorded. After a ten minute interval the carbachol procedure was repeated. Responses to increasing concentrations of a test compound (0.001 to 10 mcg/ml with one log intervals) were then recorded every 10 minutes. Preparations were washed four times after each response. All doses of compounds were administered in a 0.1 ml volume. Because it has been observed that the magnitude of the second response to carbachol (approximately 10% greater than the first) is close to the maximal response of the tissue, such value was taken as a measure of the sensitivity of a particular segment. Responses to each concentration of the test compound were expressed in terms of percentage of the second response to carbachol and the ED50 (dose producing a response 50% that of carbachol) was calculated graphically.
Activity was scored according to the following scale: […]

In another assay the test system is anesthetized dog. Briefly: Effects on femoral blood flow in the anesthetized dog. In kind it is in vivo. The following applies: intraarterial 0.001 to 10 mcg. As for the experimental part: (H) effect on femoral blood flow in the anesthetized dog; and
The peripheral vasodilator or constrictor effects of test compounds were determined in mongrel dogs of either sex, weighing between 10 and 20 kg, anesthetized intravenously with 35 mg/kg of pentobarbital sodium. An external iliac artery was dissected immediately above the femoral arch for a length of approximately 5 cm, and a previously calibarated, non-cannulating electromagnetic-flowmeter sensor with a lumen between 2.5 and 3.5 mm was placed snugly around the vessel. Cannulas were placed in a branch of the artery arising distally to the location of the flowmeter sensor for intraarterial drug administrations, in the contralateral femoral artery for systemic blood pressure recording, and in the trachea for artificial respiration with room air. Femoral blood flow and systemic blood pressure were continuously recorded with an electromagnetic flowmeter and pressure transducer, respectively.
After an adequate control period, test compounds were injected intraarterially at one log-spaced doses ranging from 0.001 to 10 mcg, in a volume of 0.5 ml and at 5 to 10 minute intervals. […] The dose changing blood flow by 100 ml/min (ED100 ml/min) was calculated graphically and was used for scoring activity as follows: […]

Assay [1] concerns guinea pig ileum. Briefly: Antagonism of the effects of PGE1 on the guinea pig ileum in vitro. The following applies: listed as TR 4412. Format: cell-based. Here is the method:
(§1) The degree and specificity of antagonism of test compounds to the smooth muscle stimulant effects of prostaglandins were assessed in segments of terminal guinea pig ileum. Preparations were placed in tissue chambers filled with Ringer-Tyrode solution at 37° C., bubbled with a mixture of 95% O2 and 5% CO2, and arranged for isometric recording with force displacement transducers. The segments were stretched to an initial tension of 1 g, and responses to a test concentration of acetylcholine (0.1 mcg/ml) were obtained every 5 minutes until two similar responses were observed (usually after four administrations). […] Any direct contractile effect of the test compound was recorded and evaluated in terms of mean values in grams of tension developed at each concentration. Responses to the different agonists observed after incubation with the test compound were expressed as percent of control responses. All drugs were administered in a volume of 0.1 ml.
(§2) Antagonism to prostaglandins was scored independently for PGE1 and PGF2α according to the following criteria: […]

The test system of a further assay is hypertensive rat. The assay is described as follows: Effects on blood pressure in the hypertensive rat. The following applies: 1 mg/kg intraperitoneal; 2, 4, 6 and 9 hours. More on the design: key: 0: Not significant at any time interval; 1: Significant at one time interval; 2: Significant at two time intervals. Format: in vivo. Here is the method: (I) effect on systolic blood pressure in the hypertensive rat
The acute anithypertensive activity of test compounds was determined in rats made hypertensive by the procedure of Grollman (Proc. Soc. Exper Biol. Med., 57: 102 [1944]). Female rats weighing between 60 and 100 g were anesthetized with ether, the right kidney approached through a flank retroperitoneal incision, decapsulated and tied with a figure-of-eight-ligature. The animals were left to recover and two weeks later were again anesthetized and the contralateral kidney removed. […]
Blood pressure was measured in the tail with an inflatable occluding cuff placed at the base of the extremity and a pulse detector located distally. The cuff was inflated to approximately 300 mmHg and was slowly deflated until pulsations appeared, indicating the level of systolic pressure; diastolic pressure was not recorded by this procedure. […] In all cases, three pressure readings were obtained in succession and mean values were calculated thereof.
Experiments were carried out in groups of five hypertensive rats in which systolic pressure was determined immediately before and 2, 4, 6 and 9 hours after intraperiotoneal administration of the test compound at a dose of 1 mg/kg. Drugs were diluted from stock solutions with phosphate buffer (Lee et al., Prostaglandins, 3: 29 [1973]), so as to inject this quantity in a volume of 1 ml/kg. […]

Assay [2] concerns guinea pig ileum. Briefly: Antagonism of the effects of PGF2α on the guinea pig ileum in vitro. The following applies: listed as TR 4412. In kind it is cell-based. Here is the method: as §1, §2
The subject of another assay is anesthetized cat. Briefly: Effects on blood pressure and heart rate in the anesthetized cat. Format: in vivo. The following applies: i.v. 0.01 to 10.0 mcg/kg, scored on hypotension only. As for the experimental part:
(G) effect on blood pressure and heart rate in the anesthetized cat;
The acute effects of test compounds on blood pressure and heart rate were determined in cats of either sex anesthetized with a mixture of pentobarbital sodium (35 mg/kg, i.v.) and barbital sodium (100 mg/kg, i.v.). Cannulas were placed in the trachea to allow adequate spontaneous ventilation, in a femoral artery for blood pressure recording with a strain gage transducer, and in a saphenous vein for drug administration. Heart rate was recorded by means of a cardiotachometer driven by the R wave of the electrocardiogram. After a period of 10 minutes of stable recordings of blood pressure and heart rate, the test compound was administered intravenously at doses increasing from 0.01 to 10.0 mcg/kg, spaced one log and injected at 10 minute intervals. All doses were injected in a volume of 0.1 ml/kg. Modifications of blood pressure and heart rate induced by the test compound were expressed both in absolute units (mmHg and beats/minute) and as percent of values recorded immediately before administration of each dose. […]
Activity of compounds in this test was judged only on the basis of the degree of hypotension observed. Thus, the ED50 mmHg (dose decreasing blood pressure by 50 mmHg) was calculated graphically, and the compound scored according to the following scale: […]

`CCCCC[C@@H](O)/C(=C/[C@H]1[C@H](O)CC(=O)[C@@H]1C/C=C\CCCC(=O)OCC)c1ccccc1` [Example 7A, Ethyl 14-Phenyl-11α,15R-dihydroxy-9-oxoprosta-5Z,13E-dien-1-oate]: the “Guinea Pig Trachea: activity value” with guinea pig trachea was 1. Moreover, the “Rat Uterus: activity value (ED50)” value with rat uterus is reported as 0 (>10).
Regarding `CCCCC[C@H](O)/C(=C/[C@H]1[C@H](O)CC(=O)[C@@H]1CCCCCCC(=O)OC)c1ccccc1` [Example 1, Methyl 14-Phenyl-11α,15S-dihydroxy-9-oxoprost-13E-en-1-oate], the “Femoral Blood Flow: activity value (ED100 ml/min)” value with anesthetized dog is 0 (>10.0). In addition, the “antagonism to the smooth muscle stimulant effects of PGE1 (in words)” value with guinea pig ileum [1] is “exhibited antagonism to the smooth muscle stimulant effects of PGE1 and PGF2α; also recorded: demonstrated a specificity of antagonism to the smooth muscle stimulant effects of PGE1 and PGF2α”. Besides, in the assay with rat uterus, the “Rat Uterus: activity value (ED50)” value is listed as 0 (>10). Besides, the “Blood Pressure Hypertensive Rat: activity value” with hypertensive rat turned out to be 0. The “antagonism to the smooth muscle stimulant effects of PGF2α (in words)” value in the assay on guinea pig ileum [2] was “exhibited antagonism to the smooth muscle stimulant effects of PGE1 and PGF2α; also recorded: demonstrated a specificity of antagonism to the smooth muscle stimulant effects of PGE1 and PGF2α”. In addition, the “Feline Blood Pressure, Heart Rate: activity value (ED50 mmHg)” value with anesthetized cat was 0 (>10.0).
